In ChEMBL document CHEMBL1156829 (Proc Natl Acad Sci U S A, 2008):

Legend:
Plasmodium falciparum [1] = assay: NOVARTIS: Inhibition of Plasmodium falciparum 3D7 (drug-susceptible) proliferation in erythrocyte-based infection assay; assay type: functional, organism-based; details: Plasmodium falciparum, 3D7
Plasmodium falciparum [2] = assay: NOVARTIS: Inhibition of Plasmodium falciparum W2 (drug-resistant) proliferation in erythrocyte-based infection assay; assay type: functional, organism-based; details: Plasmodium falciparum, W2; read-out: EC50
[3] = NOVARTIS: Cytotoxicity against human hepatocellular carcinoma cell line (Huh7); assay type: toxicity, cell-based, Huh-7; details: Huh7 cells (hepatocellular carcinoma cell line)

Structure (SMILES) | EC50 (Plasmodium falciparum [1]) | EC50 (Plasmodium falciparum [2]) | CC50 [3]
Cc1cc(N2CCCC2)nc2ccc(NC(=S)NCCN3CCc4ccccc4C3)cc12 | 44 nM | 629 nM | 21.5 µM
Cc1ccc(Cl)cc1Nc1nc2ccccc2n2c(C)nnc12 | > 12500 nM | 4470 nM | > 100 µM
COC(=O)[C@@H]1C[C@@H](NC(=O)c2ccc(OC)cc2OC)CN1Cc1cc(C)ccc1C | 1070 nM | 1320 nM | > 100 µM
COc1cccc(C2C(C(=O)Nc3ccc(C)cc3C)=C(C)Nc3c(C(=O)Nc4ccccc4)cnn32)c1 (stereo not drawn) | 590 nM | 190 nM | > 100 µM
CC[n+]1c(C=C2C=CN(C)C=C2)ccc2cc(C)ccc21 | 388 nM | 286 nM | > 26.8 µM
COc1cccc2c1C(=O)c1c(O)c3c(c(O)c1C2=O)C[C@](O)(C(C)=O)C[C@@H]3O[C@H]1C[C@@H](N)[C@H](O)[C@H](C)O1 | 308 nM | 213 nM | 0.129 µM
CCN(CC)CCCC(C)Nc1cc(/C=C/c2ccc([N+](=O)[O-])cc2)nc2cc(OC)ccc12 (stereo not drawn) | 479 nM | 410 nM | > 10 µM
CCSc1ncnc2scc(-c3ccccc3)c12 | > 1510 nM | 1710 nM | > 10 µM
COc1ccc(C2CC(=O)C3=C(C2)NC(C)=C(C(=O)OC2CCCC2)C3c2ccccc2)cc1 (stereo not drawn) | 124 nM | 33.5 nM | > 100 µM
COc1cc2c(cc1C=C(C#N)c1cccc(C)c1)OCO2 | > 9740 nM | 1310 nM | > 100 µM
CN(C)c1ccc(C=Cc2nc(=O)c3ccccc3o2)cc1 | 95.9 nM | 96.1 nM | > 100 µM
Cn1c(SCc2cccc([N+](=O)[O-])c2)nc2c(c1=O)SCC2 | 3280 nM | 2790 nM | > 100 µM
O=C(/C=C/c1cccnc1)C12CC3CC(CC(C3)C1)C2 | 102 nM | 52.8 nM | > 10 µM
CC(C)(C)CC(C)(C)Nc1c(-c2ccccc2OC(=O)C(c2ccccc2)c2ccccc2)nc2ccccn12 | 882 nM | 36.5 nM | 2.15 µM
CN1C=CC(=Cc2sc3ccccc3[n+]2C)C=C1 | 208 nM | 558 nM | > 100 µM
Cc1cc2nc(NC(=N)N)nc(C)c2cc1C | 2660 nM | > 9300 nM | > 100 µM
CCc1ccc(NC(=O)C2c3ccccc3C(=O)N(CC(C)C)C2c2cccs2)cc1 (stereo not drawn) | 2300 nM | 607 nM | > 100 µM
O=[N+]([O-])c1cc(NC2OC(CO)C(OC3OC(CO)C(O)C(O)C3O)C(O)C2O)ccc1Cl (stereo not drawn) | > 848 nM | > 1250 nM | > 10 µM
CC(=O)N1c2ccccc2CC1C(=O)NCc1cccc(Cl)c1 (stereo not drawn) | > 12500 nM | > 6460 nM | > 100 µM
COc1ccc(C2CC(=O)C3=C(C2)NC(C)=C(C(=O)OC2CCCC2)C3c2ccc(Cl)cc2)cc1 (stereo not drawn) | 260 nM | 125 nM | > 100 µM
CCCCCCN(C(=O)COCc1ccccc1)C(CC)c1nc2ccccc2c(=O)n1-c1cccc(Cl)c1 (stereo not drawn) | 42.2 nM | 75.8 nM | > 7.77 µM
CCc1ccc(NC(=O)c2ccc(F)c(S(=O)(=O)N3CCN(C)CC3)c2)cc1 | > 1250 nM | > 584 nM | > 10 µM
Cc1cccc(NC(=O)C2C3C=CC4(O3)C2C(=O)N(CC2COc3ccccc3O2)C4C(=O)NC2CCCC(C)C2C)c1 (stereo not drawn) | > 8070 nM | 1860 nM | > 100 µM
Cc1cc(OC(C)C(=O)N2CCc3ccccc32)ccc1Cl (stereo not drawn) | 897 nM | 926 nM | > 100 µM

Structure (SMILES) | EC50 (Plasmodium falciparum [1]) | EC50 (Plasmodium falciparum [2]) | CC50 [3]
CC[n+]1c(C=C2C=C(C)CC(C)C2)sc2ccccc21 (stereo not drawn) | 326 nM | 300 nM | > 100 µM
COc1ccc(C)cc1-n1c(-c2ccc(Cl)cc2)cc2c1CC(C)(C)CC2=O | 3.34 nM | > 145 nM | > 10 µM
CCOC(=O)c1cnc2ccc(OCC)cc2c1NCCCN(CC)CC | 117 nM | 140 nM | 70.1 µM
Nc1ccc(N2CCCCCC2)cc1 | 153 nM | 183 nM | > 100 µM
O=C1Cc2ccccc2C(=C2CCNCC2)c2ccsc21 | 532 nM | 2040 nM | > 10 µM
Cc1nc(N2CCN(C)CC2)c2c(C)c(C(=O)NCCN(C)C)sc2n1 | > 1600 nM | > 1000 nM | > 10 µM
CCOc1ccc(C(=O)C(CCC(C[N+]2(C)CCCCCC2)C(=O)c2ccc(OCC)cc2)C[N+]2(C)CCCCCC2)cc1 (stereo not drawn) | 615 nM | 693 nM | > 100 µM
CCN1CCN(c2cc(C)c3cc(NC(=O)/C=C/c4cccc(Cl)c4)ccc3n2)CC1 | 935 nM | 1010 nM | > 13.8 µM
Cc1c(/C=C2\SC(=Nc3ccccc3F)N(C3CCCCC3)C2=O)c2ccccc2n1CC(N)=O | 301 nM | 961 nM | > 100 µM
CC(C)(C)CC(=O)NCCCCNc1ccnc2cc(Cl)ccc12 | 20.7 nM | 102 nM | > 12.2 µM
CCN(CC)CCCC(C)Nc1ccnc2cc3ccccc3cc12 (stereo not drawn) | 90.1 nM | 933 nM | 21.3 µM
CCN1C=CC(=Cc2ccc3cc(C)ccc3[n+]2C)C=C1 | 170 nM | 140 nM | > 58 µM
CCOC(=O)c1c(C)n(-c2ccccc2)c2ccc(OC(=O)c3ccccc3NC(=O)CC)cc12 | 1060 nM | 1530 nM | > 100 µM
N#Cc1c(-c2ccccc2)cc(N2CCN(C3CCCCC3)CC2)n2c1nc1ccccc12 | 234 nM | 932 nM | > 100 µM
O=c1c2ccccc2[nH]c2ccc(F)cc12 | 186 nM | 208 nM | > 100 µM
COc1ccc2nc(-c3ccccc3)cc(O)c2c1 | 411 nM | 314 nM | 0.835 µM
CCCCCCCC(=O)N1CCN(CCN(Cc2ccc(F)cc2)C(=O)c2c(-c3c(F)cccc3Cl)noc2C)CC1 | 1760 nM | 1660 nM | > 100 µM
O=C(NCCCCNc1ccnc2cc(Cl)ccc12)c1ccc([N+](=O)[O-])cc1 | 486 nM | 565 nM | > 10 µM
CCN(CC)c1cc(-c2ccccn2)nc(-c2ccccn2)n1 | 578 nM | 418 nM | > 10 µM
O=C1CCC2C3C=CC(C3)C12 (stereo not drawn) | 1780 nM | 447 nM | > 12.4 µM
CCCCCCN(CCCCCC)CC(O)c1cc(-c2ccc(Cl)cc2)nc2c(C)cc(C)cc12 (stereo not drawn) | 7130 nM | 5940 nM | 51.9 µM
CCSc1sc2sccc2[n+]1CC | 944 nM | 833 nM | > 8.58 µM
Cc1cc(NC(=O)c2ccc(Br)cc2)no1 | > 1250 nM | 1910 nM | > 10 µM
COC(=O)CNC(c1ccccc1Cl)c1cc(Br)ccc1NS(=O)(=O)c1ccc(C)cc1 (stereo not drawn) | 1920 nM | 1760 nM | > 100 µM

Structure (SMILES) | EC50 (Plasmodium falciparum [1]) | EC50 (Plasmodium falciparum [2]) | CC50 [3]
COc1cccc(CCNC(=O)c2ccc(OC3CCN(CC(c4ccccc4)c4ccccc4)CC3)c(OC)c2)c1 | 1070 nM | 84.5 nM | > 10 µM
Cc1ccc(NC(=O)CN2CCN(c3ccccn3)CC2)cc1F | 2080 nM | > 1540 nM | > 10 µM
C=CC1CN2CCC1CC2C(O)c1ccnc2ccccc12 (stereo not drawn) | 43.5 nM | 84.1 nM | > 100 µM
O=C(c1ccco1)N1CCN(c2ccc([N+](=O)[O-])c(NC3CC3)c2)CC1 | 100 nM | 44.5 nM | > 100 µM
CCOC(=O)c1cccc(N2C(N)=NC(N)=NC2(C)C)c1 | 148 nM | > 1250 nM | > 10 µM
CC1CCCCN1CC(=O)N1CCN(C(=O)CN2CCCCC2C)CC1.CC=O (stereo not drawn) | > 1250 nM | 60.3 nM | > 4.25 µM
CC(C)NC(=O)c1ccc(OC2CCN(CC3CCCCC3)CC2)c(Cl)c1 | 476 nM | 298 nM | 65.9 µM
Oc1c(C(Nc2ccccn2)c2ccncc2)ccc2cccnc12 (stereo not drawn) | 830 nM | 892 nM | > 10 µM
Cc1nc2ccc(Cl)cc2c(O)c1I | 3470 nM | 714 nM | > 100 µM
Cc1ccn2c(NC(C)(C)CC(C)(C)C)c(-c3ccccc3OC(=O)C(C)(C)C)nc2c1 | 520 nM | < 7.9 nM | > 11.1 µM
CC1N=C2c3ccccc3N=C(SCc3ccc(F)cc3)N2C1=O (stereo not drawn) | > 12500 nM | > 6530 nM | > 100 µM
Cc1ccc(S(=O)(=O)NNC(=O)C2CCC(c3ccccc3)CC2)c2nsnc12 (stereo not drawn) | 727 nM | > 1250 nM | > 10 µM
O=C1N(c2ccccc2)C[C@@H]2C[C@@H](c3ccc4nsnc4c3)N3CCC[C@@]123 | 888 nM | 641 nM | 9.25 µM
Nc1ccc(Nc2ccc(N)cc2)cc1 | 319 nM | 711 nM | > 10 µM
CCOC(=O)C1(CC2CCCCO2)CCN(Cc2cccc(C)n2)CC1 (stereo not drawn) | > 8370 nM | 1780 nM | > 100 µM
CC(=NNC(=N)N)c1ccc(C)cc1 | 2040 nM | 250 nM | 19.3 µM
CCOC(=O)c1cnc2cc(Cl)c(OC)cc2c1NCCCN1CCOCC1 | 1370 nM | 1340 nM | > 10 µM
CCCOC(=O)C1=C(C)NC2=C(C(=O)CC(c3ccc(OC)cc3)C2)C1c1ccc([N+](=O)[O-])cc1 (stereo not drawn) | 281 nM | 51.4 nM | > 100 µM
NCCC(=O)N1CC(c2ccccc2)c2ccccc2C1CN1CCCCC1 (stereo not drawn) | 342 nM | 231 nM | 8.52 µM
Cc1ccc2c(C)nc(NC(=N)N)nc2c1 | 406 nM | 756 nM | 48.2 µM
CC(C)(C)c1ccc(NC(=O)CN2CCCCC2)cc1 | > 12500 nM | > 8770 nM | 49.7 µM
Cc1ccccc1NC(=S)NC(Cc1ccccc1)c1ccccc1 (stereo not drawn) | 374 nM | 340 nM | > 10 µM
COC(=O)C1N(C(=O)OC)c2ccc([N+](=O)[O-])cc2S1(=O)=O (stereo not drawn) | 362 nM | > 1280 nM | > 10 µM
